Experimental data reported in publication PMC10090446, “Population pharmacokinetic analysis and dosing optimization of polymyxin B in critically ill patients” (Frontiers in Pharmacology, 2023).
Positions of bridges follow the written chain, without caps; N, C: chain ends. Non-standard residues stand in square brackets, D forms with d. Residues, ends and D or L forms follow the SMILES beside them. *: point of attachment. X1 = CC[C@H](C)CCCCC(=O)*; Dab = NCC[C@H](N)C(=O)O

Test: Steady-state plasma concentrations of polymyxin B (total of B1, B2, B1-Ile) by LC-MS/MS
Format: in vivo
Details: human, iv, read-out: OUT (observed polymyxin B plasma concentration)
Description: We gather data from critically ill patients (≥18 years old) who were given intravenous drip polymyxin B treatment with blood concentration monitoring at the hospital from November 2021 to September 2022. The attending physician decided to administer polymyxin B. At the same time, patients who received continuous renal replacement therapy (CRRT) (n = 10) or extracorporeal membrane oxygenation (ECMO) (n = 2) at the time of blood collection were excluded. Patients’ information, including gender, age, WT, serum creatinine (Scr), CCR, ALB, APACHE-II, infection diagnosis, and pathogenic bacteria, were obtained from the electronic system for medical records. CCR was generated by adopting the Cockcroft—Gault equation with WT and age ([Cucci et al., 2022]). The Ethical Committees of the Second Affiliated Hospital of the South China University of Technology authorized the study (K-2022-020-01).
Patients were treated with polymyxin B, and plasma samples were collected ≥ 48 h after the treatment. Each patient contributed clinical samples, of which 37.5% (n = 24) were sampled with troughs (within 1 h before administration), 35.9% (n = 23) were sampled with peaks (within 1 h after the end of the infusion), and 26.6% (n = 17) were sampled at 6-8 h after the infusion. The dosing regimens of polymyxin B were a loading dose of 100 mg–150 mg and a maintenance dose of 50 mg–75 mg q12h, and the infusion duration was about 1–2 h. In preparation for analysis, samples were centrifuged for 10 min at 3000 r min^-1 after collection, and the upper plasma after centrifugation was stored at −20°C.
According to previous studies, total polymyxin B1, polymyxin B2, and polymyxin B1-Ile concentrations in human blood plasma were quantified using LC-MS/MS ([Meng et al., 2016]; [Hee et al., 2017]). The standard used in our experiments was the USP standard with the batch number of R104F0. The chromatographic column was the Kinetex C18 (3 μm × 2.1 mm×100 mm. Phenomenex). A: B mobile phase was 0.1% formic acid to acetonitrile. With changes in the linear velocity ratio, gradient elution was as follows: 15% −15% B, 0–2.0 min; 15%–10% B, 2.01–4.0 min; 10%–30% B, 4.01–5.0 min; 15% B, 5.01 min; and 15%–15% B, 5.02–10 min. The flow rate was constrained to 0.8 mL min^-1, and the column temperature was set to 40°C. The parent/daughter ion mass ratios used in the mass spectrometry were m/z 602.6/241.2 (polymyxin B1 and B1-Ile) and m/z 595.6/202.1 (polymyxin B2). Plasma samples (100 μL) were collected from centrifuged blood samples, mixed with 500 μL precipitant (acetonitrile with 6.67% formic acid) and vortexed well for 1 min. The lower limit of quantification (LLOQ) of the bioanalytical method used for quantifying polymyxin B1, B2, and B1-Ile concentrations was 0.19, 0.02 and 0.02 mg L^-1, respectively. The linear relationships of polymyxin B1, B2, and B1-Ile concentrations in the range of 0.19–24.13 mg L^-1, 0.02–2.7 mg L^-1 and 0.02–2.38 mg L^-1 were considered good (R^2 = 0.99677, R^2 = 0.99656, R^2 = 0.99484) and the accuracy was within 95.3%–105.3%, 92.2%–104.8%, and 95.8%–105.4%. […] Finally, 200 μL of the supernatant from the centrifugation of the combination at 14,000 r min^-1 for 10 min was employed to measure the amounts of polymyxin B.

CC[C@H](C)CCCCC(=O)N[C@@H](CCN)C(=O)N[C@H](C(=O)N[C@@H](CCN)C(=O)N[C@H]1CCNC(=O)[C@H]([C@@H](C)O)NC(=O)[C@H](CCN)NC(=O)[C@H](CCN)NC(=O)[C@H](CC(C)C)NC(=O)[C@@H](Cc2ccccc2)NC(=O)[C@H](CCN)NC1=O)[C@@H](C)O [polymyxin B] (X1-[Dab]T[Dab][Dab][Dab][dF]L[Dab][Dab]T; lactam 4-C)
level at 325 h (patient ID 3, TIME 325, DOSE 100 at 0 then 50 from 12, ADDL 27, II 12, DUR 1, WT 57, CCR 61.5, ALB 33.8, APACHE 21, single sample): 6600 ng/mL
level at 330 h (patient ID 3, TIME 330, DOSE 100 at 0 then 50 from 12, ADDL 27, II 12, DUR 1, WT 57, CCR 61.5, ALB 33.8, APACHE 21, single sample): 2930 ng/mL
level at 336 h (patient ID 3, TIME 336, DOSE 100 at 0 then 50 from 12, ADDL 27, II 12, DUR 1, WT 57, CCR 61.5, ALB 33.8, APACHE 21, single sample): 3140 ng/mL
level at 59 h (patient ID 4, TIME 59, DOSE 100 at 0 then 50 every 12 to 48, DUR 1, WT 58, CCR 61.95, ALB 25.5, APACHE 28, single sample): 863 ng/mL
level at 64.5 h (patient ID 4, TIME 64.5, DOSE 100 at 0 then 50 every 12 to 60, DUR 1, WT 58, CCR 61.95, ALB 25.5, APACHE 28, single sample): 2330 ng/mL
level at 167.9 h (patient ID 5, TIME 167.9, DOSE 100 at 0 then 50 from 12, ADDL 15, II 12, DUR 1, WT 60, CCR 41.15, ALB 36.1, APACHE 21, single sample): 2900 ng/mL
level at 182 h (patient ID 5, TIME 182, DOSE 100 at 0 then 50 from 12, ADDL 15, II 12, DUR 1, WT 60, CCR 41.15, ALB 36.1, APACHE 21, single sample): 4510 ng/mL
level at 186 h (patient ID 5, TIME 186, DOSE 100 at 0 then 50 from 12, ADDL 15, II 12, DUR 1, WT 60, CCR 41.15, ALB 36.1, APACHE 21, single sample): 3290 ng/mL
level at 73.25 h (patient ID 10, TIME 73.25, DOSE 100 at 0 then 50 every 12 to 72, DUR 1, WT 62, CCR 72.12, ALB 33.9, APACHE 17, single sample): 6730 ng/mL
level at 79 h (patient ID 10, TIME 79, DOSE 100 at 0 then 50 every 12 to 72, DUR 1, WT 62, CCR 72.12, ALB 33.9, APACHE 17, single sample): 6230 ng/mL
level at 84.42 h (patient ID 10, TIME 84.42, DOSE 100 at 0 then 50 every 12 to 72, DUR 1, WT 62, CCR 72.12, ALB 33.9, APACHE 17, single sample): 3890 ng/mL
level at 98 h (patient ID 11, TIME 98, DOSE 100 at 0 then 50 every 12 to 96, DUR 2, WT 55, CCR 67.29, ALB 30.9, APACHE 46, single sample): 5200 ng/mL
level at 102 h (patient ID 11, TIME 102, DOSE 100 at 0 then 50 every 12 to 96, DUR 2, WT 55, CCR 67.29, ALB 30.9, APACHE 46, single sample): 2530 ng/mL
level at 105.5 h (patient ID 11, TIME 105.5, DOSE 100 at 0 then 50 every 12 to 96, DUR 2, WT 55, CCR 67.29, ALB 30.9, APACHE 46, single sample): 2180 ng/mL
level at 145 h (patient ID 13, TIME 145, DOSE 75 at 0 then 50 every 12 from 12 (ADDL 12), DUR 1, WT 57, CCR 41.39, ALB 24.4, APACHE 18, single measurement): 2590 ng/mL
level at 150 h (patient ID 13, TIME 150, DOSE 75 at 0 then 50 every 12 from 12 (ADDL 12), DUR 1, WT 57, CCR 41.39, ALB 24.4, APACHE 18, single measurement): 1830 ng/mL
level at 156 h (patient ID 13, TIME 156, DOSE 75 at 0 then 50 every 12 from 12 (ADDL 12), DUR 1, WT 57, CCR 41.39, ALB 24.4, APACHE 18, single measurement): 1090 ng/mL
level at 50.5 h (patient ID 14, TIME 50.5, DOSE 100 at 0, 50 at 12, 24, 36, 50.8, DUR 1, WT 60, CCR 111.4, ALB 25.4, APACHE 25, single measurement): 1140 ng/mL
level at 51.8 h (patient ID 14, TIME 51.8, DOSE 100 at 0, 50 at 12, 24, 36, 50.8, DUR 1, WT 60, CCR 111.4, ALB 25.4, APACHE 25, single measurement): 4060 ng/mL
level at 57.8 h (patient ID 14, TIME 57.8, DOSE 100 at 0, 50 at 12, 24, 36, 50.8, DUR 1, WT 60, CCR 111.4, ALB 25.4, APACHE 25, single measurement): 1820 ng/mL
level at 72.66 h (patient ID 15, TIME 72.66, DOSE 100 at 0, 50 at 12, 100 at 24, 75 at 36, 48, 60, WT 50, CCR 35.85, ALB 29.5, APACHE 39, single measurement): 3110 ng/mL
level at 54.67 h (patient ID 19, TIME 54.67, DOSE 100 at 0 then 50 every 12 from 12 (ADDL 3), DUR 1, WT 60, CCR 35.69, ALB 25.6, APACHE 19, single measurement): 1860 ng/mL
level at 60 h (patient ID 19, TIME 60, DOSE 100 at 0 then 50 every 12 from 12 (ADDL 3), DUR 1, WT 60, CCR 35.69, ALB 25.6, APACHE 19, single measurement): 1300 ng/mL
level at 73.45 h (patient ID 20, TIME 73.45, DOSE 100 at 0 then 50 every 12 from 12 (ADDL 6), DUR 1.45, WT 75, CCR 84.86, ALB 29.5, APACHE 18, single measurement): 4270 ng/mL
level at 77.45 h (patient ID 20, TIME 77.45, DOSE 100 at 0 then 50 every 12 from 12 (ADDL 6), DUR 1.45, WT 75, CCR 84.86, ALB 29.5, APACHE 18, single measurement): 2700 ng/mL
level at 84 h (patient ID 20, TIME 84, DOSE 100 at 0 then 50 every 12 from 12 (ADDL 6), DUR 1.45, WT 75, CCR 84.86, ALB 29.5, APACHE 18, single measurement): 1960 ng/mL
level at 50 h (patient ID 21, TIME 50, DOSE 150 at 0 then 75 every 12 from 12 (ADDL 4), DUR 2, WT 70, CCR 56.54, ALB 38.1, APACHE 40, single measurement): 7030 ng/mL
level at 54 h (patient ID 21, TIME 54, DOSE 150 at 0 then 75 every 12 from 12 (ADDL 4), DUR 2, WT 70, CCR 56.54, ALB 38.1, APACHE 40, single measurement): 3830 ng/mL
